In patent publication US6960582B2, “Guanidino compounds” (Chiron Corporation, priority 2001, dated 2005) one finds EC50 data, which are given here for two compounds.

Structures are written as SMILES.

For the test, the target named is MC4-R (Homo sapiens, UniProt P32245). Description: cAMP Scintillation Proximity Assay (SPA) in cells expressing MC4-R. The format is cell-based. The settings on record: intercellular cAMP concentration by SPA kit, read-out: in vitro potency (as measured by EC50 value). Here is the method:
EC50 values of test compounds were determined by treating cells expressing MC4-R with test compound and lysing the cells and measuring intercellular cAMP concentration with an Amersham-Pharmacia RPA-559 cAMP Scintillation Proximity Assay (SPA) kit. The following compounds were synthesized and tested according to this assay. The following compounds are merely illustrative and should not be construed as limiting of the instant invention.

The term EC50 denotes the midpoint of the concentration-response curve.

Chain of MC4-R (P32245 whole entry, species assumed): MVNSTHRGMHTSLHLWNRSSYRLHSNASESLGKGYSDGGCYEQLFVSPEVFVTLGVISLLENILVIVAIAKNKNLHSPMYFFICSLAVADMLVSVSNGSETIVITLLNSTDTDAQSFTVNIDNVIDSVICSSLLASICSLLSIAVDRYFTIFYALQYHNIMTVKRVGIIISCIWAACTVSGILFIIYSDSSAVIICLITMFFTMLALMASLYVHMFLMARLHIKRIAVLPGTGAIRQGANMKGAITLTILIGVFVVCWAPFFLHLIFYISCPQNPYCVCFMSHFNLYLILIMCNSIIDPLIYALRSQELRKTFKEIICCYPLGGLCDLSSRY

`C[C@@H]1[C@@H](N=C(Nc2ccc3c(c2)C(=O)N([C@H](CO)Cc2ccc(Cl)cc2Cl)C3=O)N2CCN[C@@H](C)C2)C[C@H]2C[C@@H]1C2(C)C` [Example 8, (3S )-N-{2-[(1S)-1-(2,4-dichlorobenzyl)-2-hydroxyethyl]-1,3-dioxo-2,3-dihydro-1H-isoindol-5yl}-3-methyl-N′-[(1S,2S,3S,5R)-2,6,6-trimethylbicyclo[3.1.1]hept-3-yl]piperazine-1-carboximidamide]: the 50% effective concentration (EC50) was below 3 µM. Turning to `C[C@@H]1[C@@H](N=C(Nc2ccc3c(c2)CN(CCc2ccc(Cl)cc2Cl)C3=O)N2CCN[C@@H](C)C2)C[C@H]2C[C@@H]1C2(C)C` [Example 1, (3S)-N-{2-[2-(2,4-dichlorophenyl)ethyl]-1-oxo-2,3-dihydro-1H-isoindol-5-yl}-3-methyl-N′-[(1S,2S,3S,5R)-2,6,6-trimethylbicyclo[3.1.1]hept-3-yl]piperazine-1-carboximidamide], the EC50 was below 3 µM.
